# Data as given in patent US20100279976A1, “USE OF ARTEMISININ AND ITS DERIVATIVES IN CANCER THERAPY” (SHANGHAI INSTITUTES FOR BIOLOGICAL SCIENCES, CAS, priority 2009, published 2010).
# Columns and labels:
# [1] = tested on: 7702 normal human liver cells; test: MTT cell viability assay, normal liver cells; assay type: cell-based; conditions: 7702 cells, 48 h; for IC20: read-out: IC20 (concentration that reduces growth by 20%)
# Method: (§1) The effects of ART derivatives on the viability of the aforementioned cells may be determined using the MTT assay. Briefly, 2,000 cells per well were plated in triplicate in 96-well plates. After a 24-h incubation, the cells may be treated with varying concentrations of ART derivatives (0, 1, 5, 10, 25, 50, and 100 μmol/L) for 48 h. The MTT assay may be performed according to the manufacture's instruction and the resultant formazan crystals may be dissolved in DMSO (100 μL). The absorbance may be then recorded at 540 nm. The effects of ART derivatives on cell viability may be assessed by comparing the percent cell viability of the treated cells with the vehicle (DMSO)-treated control cells, which may be arbitrarily assigned at 100% viability. The experiment may be repeated thrice under the same conditions.
# [2] = tested on: HepG2 hepatoma cells (p53 wild-type); test: MTT cell viability assay, HepG2; assay type: cell-based; conditions: Homo sapiens, 48 h
# Method: as §1
# [3] = tested on: Hep3B hepatoma cells (p53 null); test: MTT cell viability assay, Hep3B; assay type: cell-based; conditions: Homo sapiens, 48 h
# Method: as §1
# [4] = tested on: Huh-7 hepatoma cells (p53 mutant); test: MTT cell viability assay, Huh-7; assay type: cell-based; conditions: Homo sapiens, Huh-7 (p53 mutant), 48 h
# Method: as §1
# [5] = tested on: BEL-7404 hepatoma cells (p53 mutant); test: MTT cell viability assay, BEL-7404; assay type: cell-based; conditions: Homo sapiens, BEL-7404 (p53 mutant), 48 h
# Method: as §1
# HepG2 cells [6] = test: MTT growth inhibition time course, alone or with gemcitabine; assay type: cell-based; conditions: Homo sapiens, HepG2, 10 μmol/L
# Method: In addition, the growth-inhibitory effects of ART and DHA and the effects in combination with gemcitabine in HepG2 and Hep3B cells may also be determined using the MTT assay. Briefly, 700 cells per well may be plated in 96-well culture plates. After a 24-h incubation, the cells may be treated with 10 μmol/L ART, 10 μmol/L DHA, 10 μg/L gemcitabine, 10 μmol/L ART plus 10 μg/L gemcitabine, or 10 μmol/L DHA plus 10 μg/L gemcitabine for various times (0, 24, 48, 72, and 96 h). The results reflect the average of three replicates.
# HepG2 cells [7] = test: Cell cycle analysis (propidium iodide, flow cytometry), HepG2; assay type: cell-based, human
# Method: Cells (2×10^5) may be treated with ART and DHA (0, 1, 10, 25, and 50 μmol/L) as described above for 48 h. The harvested cells may be re-suspended in 200 μL of cold PBS, to which cold ethanol (600 μl) may be added, and the mixture may then be incubated for 2 h at 4° C. After centrifugation, the pellet may be washed with cold PBS, suspended in 500 μL PBS, and incubated with 50 μL RNase (20 μg/mL final concentration) for 30 min. The cells may be incubated with propidium iodide (50 μg/mL final concentration) for 30 min in the dark. The cell cycle distribution may be determined using a FACSAria instrument (BD Biosciences). The experiment may be repeated thrice under the same conditions.
# Hep3B cells = test: Annexin V-FITC apoptosis assay, Hep3B; assay type: cell-based, human
# Method: ART- and DHA-induced apoptosis alone or in combination with gemcitabine in HepG2 and Hep3B cells or in combination with carboplatin in ovarian cancer cells may be determined by flow cytometry using the Annexin V-FITC Apoptosis Detection kit following the manufacturer's instructions. Briefly, 2×10^5 cells may be treated with ART and DHA ([…]) or 10 μg/L gemcitabine for 48 h. The cells may then be harvested, washed in PBS, and incubated with Annexin V and propidium iodide for staining in binding buffer at room temperature for 10 min in the dark. The stained cells may be analyzed using the FACSAria instrument.
# [8] = tested on: A2780 ovarian carcinoma cells; test: MTT cell viability assay, A2780; assay type: cell-based; conditions: Homo sapiens, A2780, 48 hrs
# Text: (§2) Human ovarian IOSE144 (immortalized non-tumorigenic human ovarian surface epithelial cells) and ovarian carcinoma (A2780 and OVCAR-3) cells that may be obtained from the American Type Culture Collection (ATCC, Manassas, Va.) are gifts from Dr. Jing Fang (Institute for Nutritional Sciences, Shanghai, China). All cells may be cultured according to the ATCC instructions. The compounds (ARS, ART, ARM and DHA) may be dissolved in DMSO (<0.1%, final concentration).
# as §1
# [9] = tested on: OVCAR-3 ovarian carcinoma cells; test: MTT cell viability assay, OVCAR-3; assay type: cell-based; conditions: Homo sapiens, OVCAR-3, 48 hrs
# Text: as §2, §1
# [10] = tested on: IOSE144 immortalized non-tumorigenic ovarian surface epithelial cells; test: MTT cell viability assay, IOSE144; assay type: cell-based; conditions: Homo sapiens, IOSE-144, IOSE144, 48 hrs
# Text: as §2, §1
# [11] = HepG2, 10 μmol/L, 48 h (control 63.05%)
# [12] = 1 μmol/L, 48 h (0 μmol/L: 0.8%)
SMILES,IC80 ([1]; Homo sapiens),IC20 ([1]; Homo sapiens),IC20 [2],IC50 [2],IC80 [2],IC20 [3],IC50 [3],IC80 [3],IC20 [4],IC50 [4],IC80 [4],IC20 [5],IC50 [5],IC80 [5],"inhibition at 10 µM (HepG2 cells [6]; 24 h, vs vehicle-treated cells)",inhibition at 10 µM (HepG2 cells [6]; 48 h),inhibition at 10 µM (HepG2 cells [6]; 72 h),cells in the G1 phase (HepG2 cells [7]; [11]),"cells in the G1 phase (HepG2 cells [7]; HepG2, 25 μmol/L, 48 h)","cells in the G1 phase (HepG2 cells [7]; HepG2, 50 μmol/L, 48 h)",also measured
"C[C@@H]1CC[C@H]2[C@@H](C)C(=O)O[C@@H]3O[C@@]4(C)CC[C@@H]1[C@]32OO4 [ART, artemisinin]",> 500 µM,3.6 µM,1.3 µM,14 µM,145 µM,0.97 µM,10.4 µM,113 µM,0.7 µM,8.9 µM,115 µM,0.9 µM,9.9 µM,107 µM,69%,92%,96%,67.41%,70.72%,69.21%,"IC50 [1]: 60.9 µM; IC50 ([1]; Homo sapiens): ≥ 60.9 µM; apoptotic cells (Hep3B cells; [12]): 2.25%; apoptotic cells (Hep3B cells; 10 μmol/L, 48 h): 2.65%; apoptotic cells (Hep3B cells; 25 μmol/L, 48 h): 4.8%; apoptotic cells (Hep3B cells; 50 μmol/L, 48 h): 25.3%; IC20 [8]: 0.73 µM; IC50 [8]: 17.6 µM; IC80 [8]: 426 µM; IC20 [9]: 0.46 µM; IC50 [9]: 6.86 µM; IC80 [9]: 103 µM; IC20 [10]: 5.6 µM; IC50 [10]: > 500 µM; IC80 [10]: > 500 µM"
"C[C@H]1[C@@H](O)O[C@@H]2O[C@@]3(C)CC[C@H]4[C@H](C)CC[C@@H]1[C@@]24OO3 [DHA, dihydroartemisinin]",> 500 µM,3.8 µM,1.2 µM,13.3 µM,146 µM,0.96 µM,10.3 µM,111 µM,0.7 µM,9.6 µM,131 µM,0.7 µM,9.3 µM,130 µM,74%,93%,97%,69.36%,70.91%,72.03%,"apoptotic cells (Hep3B cells; [12]): 2.15%; apoptotic cells (Hep3B cells; 10 μmol/L, 48 h): 12.9%; apoptotic cells (Hep3B cells; 25 μmol/L, 48 h): 28.75%; apoptotic cells (Hep3B cells; 50 μmol/L, 48 h): 31.05%; IC20 [8]: 0.83 µM; IC50 [8]: 16.4 µM; IC80 [8]: 328 µM; IC20 [9]: 0.56 µM; IC50 [9]: 6.58 µM; IC80 [9]: 77.4 µM; IC20 [10]: 1.84 µM; IC50 [10]: 106 µM; IC80 [10]: > 500 µM"
